Test results as given in patent US9630947B2, “Therapeutic compounds and related methods of use” (OTSUKA PHARMACEUTICAL CO., LTD., priority 2009, dated 2017).

biological target: T1, purified STEP46 enzyme (Homo sapiens, UniProt P54829); experiment: STEP46 biochemical assay (DiFMUP fluorescence phosphatase assay); details: DiFMUP 10 μM, read-out: STEP IC50
T1 sequence (P54829 1-565): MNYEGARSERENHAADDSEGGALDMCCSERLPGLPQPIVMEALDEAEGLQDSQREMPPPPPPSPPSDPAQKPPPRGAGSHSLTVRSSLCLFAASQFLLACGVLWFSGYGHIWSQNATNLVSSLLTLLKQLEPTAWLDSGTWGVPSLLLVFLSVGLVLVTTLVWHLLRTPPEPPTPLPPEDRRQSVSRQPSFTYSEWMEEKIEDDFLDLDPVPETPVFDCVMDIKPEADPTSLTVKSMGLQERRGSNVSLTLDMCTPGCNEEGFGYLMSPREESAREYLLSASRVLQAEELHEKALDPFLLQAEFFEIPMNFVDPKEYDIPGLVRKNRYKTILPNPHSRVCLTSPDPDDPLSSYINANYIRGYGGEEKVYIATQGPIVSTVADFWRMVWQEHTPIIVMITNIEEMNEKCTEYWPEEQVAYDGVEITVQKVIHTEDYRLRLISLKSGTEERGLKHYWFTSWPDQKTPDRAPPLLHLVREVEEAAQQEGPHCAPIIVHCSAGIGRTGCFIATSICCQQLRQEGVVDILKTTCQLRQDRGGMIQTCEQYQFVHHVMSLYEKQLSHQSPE
Procedure, shortened: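 Compounds preincubated 30 min at room temperature with purified STEP46 (1 ng/well) in 50 mM Hepes, 1 mM DTT, 0.02% Brij35, then 10 μM DiFMUP (final) added for 90 min at 27 °C; 2% DMSO, fluorescence at 360/460 nm. IC50 from four-parameter fit of % inhibition; activators reported as negative % inhibition at 25, 50 and 100 uM.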

Row | Structure (SMILES) | IC50
1 | CNc1nc(-c2cncnc2)nc2ccc(-c3cccc(F)c3F)cc12 [Compound 1239] | 1000 to 10000 nM
2 | FC(F)Oc1cccc(Nc2nc(-c3cnccn3)nc3ccccc23)c1 [Compound 1214] | 1000 to 10000 nM
3 | Fc1ccc(Nc2nc(-c3cncnc3)nc3ccccc23)cc1Cl [Compound 1230] | 1000 to 10000 nM
4 | NC(=O)c1ccccc1Nc1nc(-c2cccnc2)nc2cc(-c3ccc(F)cc3)ccc12 [Compound 701] | 1000 to 10000 nM
5 | COc1ccccc1-c1ccc2nc(-c3cccnc3)nc(Nc3ccc(F)c(Cl)c3)c2c1 [Compound 637] | 1000 to 10000 nM

Second part, the compound after the results:

Row | IC50 | Structure (SMILES)
6 | 1000 to 10000 nM | CNc1nc(-c2cccnc2)nc2cc(-c3cc(F)cc(F)c3)ccc12 [Compound 1374]
7 | 1000 to 10000 nM | Cc1cc(Cl)cc2c(Nc3ccccc3C(N)=O)nc(-c3cnccn3)nc12 [Compound 1226]
8 | 1000 to 10000 nM | CN(C)c1ccc2nc(-c3ccnnc3)nc(Nc3cccc(OC(F)F)c3)c2c1 [Compound 1153]
9 | < 1000 nM | Fc1ccc(F)c(-c2ccc3c(Nc4ccc(F)c(Cl)c4)nc(-c4cccnc4)nc3c2)c1 [Compound 676]
